From patent publication US10654883B2, “Inorganic salts of nicotinic acid mononucleotide as anti-aging agents” (Jumpstart Fertility Pty Ltd, priority 2018, dated 2020)

Columns and labels:
COV434 cells = test: NAD cell assay (NAD cycling method) in COV434 cells; assay type: cell-based, human; conditions: 200 uM, 4 hr; for Fold increase compared to NaMN (NAD level): NAD normalised to protein
Protocol: NAD levels were assayed based on the NAD cycling method of Zhu and Rand, PLoS One (2012), herein incorporated by reference. COV434 cells were maintained in 6 well plates and treated with the indicated compounds at a concentration of 200 uM for 4 hr. Media was removed, plates were washed in cold PBS and cells were scraped down in NAD extraction buffer containing 10 mM nicotinamide, 50 mM Tris HCl, 0.1% Triton X-100. Cells were homogenised by sonication for 5 seconds, and samples were centrifuged at 7,000 g for 5 min at 4 degrees. Aliquots were taken for later protein assay, and samples were then passed through 10 kDa amicon filters at 14,000 g, 30 min at 4 degrees to remove proteins from the sample. Each sample was measured in technical triplicate, with 25 μL sample added to 100 μL ADH cycling mix (0.2 mg/ml alcohol dehydrogenase enzyme, 2% ethanol, 100 mM Tris pH 8.5). Samples were allowed to cycle for 10 min at room temperature, followed by 50 μL addition of an MTT/PMS solution (0.1 mM phenazine methosulfate, 0.8 mM 3-(4,5-Dimethylthiazol-2-yl)-2,5-diphenyltetrazoliwn bromide), 100 mM Tris-HCl pH 8.5). Plates were then incubated for 15 min and absorbance was measured at 570 nm. NAD concentrations were extrapolated from a standard curve, and normalised to protein concentrations determined by BCA protein assay.

[1] = Solution stability in aqueous solution (D2O), degradation measured by 1H-NMR
Protocol: Three separate 5 mg samples of the same batch of NaMN were completely dissolved without stirring in 0.5 ml of deuterated water (D2O), each in three separate NMR tubes. All three samples were analysed at the time of dissolution via ^1H-NMR for purity.
The first NMR tube was maintained at a temperature of 25° C. The second NMR tube was maintained at a temperature of 40° C. The third NMR tube was maintained at a temperature of 60° C. Degradation of the control NaMN was measured using ^1H-NMR. Degradation of the control NaMN in aqueous solutions was analyzed over a period of 36 weeks (see FIG. 1).
The stability of the salts I-001, I-002, I-003, and I-004 in aqueous solution phase was also tested. Following the same procedure described in the control NaMN, the respective solutions of I-001, I-002, I-003, and I-004 were maintained at 25° C. and analysed for 38 weeks.

Row | Structure (SMILES) | Fold increase compared to NaMN (NAD level) (COV434 cells) | Fold Increase compared to NaMN on a molar basis (NAD level) (COV434 cells) | degradation in aqueous solution ([1]; 7 weeks, 10 mg/mL) | degradation in aqueous solution ([1]; 38 weeks, 10 mg/mL) | degradation in aqueous solution ([1]; 24 weeks, 10 mg/mL) | degradation in aqueous solution ([1]; 34 weeks, 10 mg/mL) | degradation in aqueous solution ([1]; 25° C., week 10, D2O, 1H-NMR) | degradation in aqueous solution ([1]; 40° C., week 2, D2O, 1H-NMR, study halted) | degradation in aqueous solution ([1]; 60° C., after a week, D2O, 1H-NMR, study halted)
1 | O=C([O-])c1ccc[n+]([C@@H]2O[C@H](COP(=O)([O-])O)[C@@H](O)[C@H]2O)c1.[Na+] [Compound I-001, Sodium 1-((2R,3R,4S,5R)-5-(((hydrogenphosphonato)oxy)methyl)-3,4-dihydroxytetrahydrofuran-2-yl)pyridine-1-ium-3-carboxylate] | 3.0 | 3.23 | under 2% | 4.3% |  |  |  |  | 
2 | O=C([O-])c1ccc[n+]([C@@H]2O[C@H](COP(=O)([O-])O)[C@@H](O)[C@H]2O)c1.[K+] [Compound I-002, Potassium 1-((2R,3R,4S,5R)-5-(((hydrogenphosphonato)oxy)methyl)-3,4-dihydroxytetrahydrofuran-2-yl)pyridine-1-ium-3-carboxylate] | 0.8 | 0.84 | under 2% |  | 4.7% |  |  |  | 
3 | O=C([O-])c1ccc[n+]([C@@H]2O[C@H](COP(=O)([O-])[O-])[C@@H](O)[C@H]2O)c1.[Na+].[Na+] [Compound I-003, Sodium 1-((2R,3R,4S,5R)-3,4-dihydroxy-5-((phosphonatooxy)methyl)-tetrahydrofuran-2-yl)pyridine-1-ium-3-carboxylate] | 1.0 | 1.08 | under 2% |  |  |  |  |  | 
4 | O=C([O-])c1ccc[n+]([C@@H]2O[C@H](COP(=O)([O-])[O-])[C@@H](O)[C@H]2O)c1.[K+].[K+] [Compound I-004, Potassium 1-((2R,3R,4S,5R)-3,4-dihydroxy-5-((phosphonatooxy)methyl)-tetrahydrofuran-2-yl)pyridine-1-ium-3-carboxylate] | 1.3 | 1.57 | under 2% |  |  | 2.6% |  |  | 
5 | O=C([O-])c1ccc[n+]([C@@H]2O[C@H](COP(=O)([O-])[O-])[C@@H](O)[C@H]2O)c1.[K+].[Na+] [Compound I-006, Potassium sodium 1-((2R,3R,4S,5R)-3,4-dihydroxy-5-((phosphonatooxy)methyl)tetrahydrofuran-2-yl)pyridine-1-ium-3-carboxylate] | 2.3 | 2.72 |  |  |  |  |  |  | 
6 | CC(=O)O[C@@H]1[C@H](OC(C)=O)[C@@H](COP(=O)([O-])O)O[C@H]1[n+]1cccc(C(=O)[O-])c1.[Na+] [Compound I-008, Sodium 1-((2R,3R, 4R, 5R)-3,4-diacetoxy-5-(((hydrogenphosphonato)oxy)methyl)tetrahydrofuran-2-yl)pyridine-1-ium-3-carboxylate] | 0.8 | 0.99 |  |  |  |  |  |  | 
7 | CC(=O)O[C@@H]1[C@H](OC(C)=O)[C@@H](COP(=O)([O-])O)O[C@H]1[n+]1cccc(C(=O)[O-])c1.[K+] [Compound I-009, potassium 1-((2R,3R, 4R, 5R)-3,4-diacetoxy-5-(((hydrogenphosphonato)oxy)methyl)tetrahydrofuran-2-yl)pyridine-1-ium-3-carboxylate] | 1.0 | 1.39 |  |  |  |  |  |  | 
8 | O=C(O)c1ccc[n+]([C@@H]2O[C@H](COP(=O)(O)O)[C@@H](O)[C@H]2O)c1 [NaMN, nicotinic acid mononucleotide] | 1.0 | 1.0 |  |  |  |  | about 12.3% | 15.3% | 35%
